In paper PMC9774128, “New Insights into the Mechanism of Antibacterial Action of Synthetic Peptide Mo-CBP3-PepI against Klebsiella pneumoniae” (Antibiotics, 2022):

How the values were obtained:
[1] = tested on: L929 (murine fibroblasts); assay: Cytotoxicity MTT assay; type: cell-based, mice; conditions: peptide 1 mg mL^−1, MMS 4 × 10^−5 M, absorbance 595 nm, three independent experiments
Protocol: (§1) The cytotoxicity assay was assessed by measuring the ability of live cells to convert a yellow dye, 3-(4,5-dimethyl-2-thiozolyl)-2,5-diphenyl-2H-tetrazolium bromide (MTT), to formazan. The cell lines used were L929 (murine fibroblasts, ATCC number CCL-1), MRC-5 (human lung fibroblasts, ATCC number CCL-171), and HaCaT (human keratinocytes) following the methodology described by Souza et al.. Cells were treated with Mo-CBP3-PepI at 1 mg mL^−1. The alkylating agent methyl methanesulfonate (MMS) at 4 × 10^−5 M was used as the positive control. The MTT formazan product was dissolved in 150 µL of DMSO, and the absorbance was measured using a multiplate reader (Spectra Count, Packard, Mississauga, ON, Canada). The drug effect was quantified as the percentage of control absorbance of the reduced dye at 595 nm.

L929 cells [2] = assay: Morphological analysis of apoptotic cells (AO/EB staining); type: cell-based, mice; conditions: peptide 1 mg mL^−1, MMS 4 × 10^−5 M, 24 h
Protocol: (§2) For this assay, the concentration of peptides was 1 mg mL^−1. […] Peptides and control solutions were incubated as described above. Cells with the morphological characteristics of apoptosis, such as apoptotic bodies, peripheral condensation of chromatin, fragmented nucleus, and small cell volume, were evaluated after 24 h of treatment, either with controls or peptides. The evaluation was executed using acridine orange (AO)/ethidium bromide (EB) staining assay. A total of 50 µL of the cell suspension was mixed with 1 µL of the staining solution (100 µg/mL AO + 100 µg/mL EB in PBS) and spread on a slide, where 300 cells were counted per data point.

MRC-5 cells [3] = assay: as above; type: cell-based, human; conditions: peptide 1 mg mL^−1, MMS 4 × 10^−5 M, 24 h
Protocol: as §2

HaCaT cells [4] = assay: as above; type: cell-based, human; conditions: peptide 1 mg mL^−1, MMS 4 × 10^−5 M, 24 h
Protocol: as §2

MRC-5 cells [5] = assay: Alkaline comet assay (DNA damage); type: cell-based, human; conditions: peptide 1 mg mL^−1, MMS 4 × 10^−5 M, 24 h
Protocol: (§3) For this assay, MMS at 4 × 10^−5 M was used as the positive control for DNA damage, and peptides were assayed at 1 mg mL^−1. The standard alkaline comet assay (single-cell gel electrophoresis) after treatment (24 h). Cells were washed with ice-cold PBS, trypsinized, and resuspended in a complete medium. […] Afterward, the slides were placed in a horizontal electrophoresis unit and incubated with fresh buffer solution (0.3 M NaOH, 0.001 M EDTA, pH 13.0) at 4 °C for 20 min to allow DNA to unwind and the expression of alkali-labile sites. Electrophoresis was conducted for 20 min at 25 V ([…]). All the above steps were performed in the dark to prevent additional DNA damage. Slides were neutralized (0.4 M Tris, pH 7.5) and stained using 20 µg mL of ethidium bromide. Three hundred cells (100 cells from each of the three replicate slides for each treatment) were selected, coded, and blindly analyzed for DNA migration. These cells were visually scored according to tail length into five classes: • Class 0: undamaged, without a tail; • Class 1: with a tail shorter than the diameter of the head nucleus; • Class 2: with tail length 1–2× the diameter of the head; • Class 3: with a tail longer than 2× the diameter of the head; • Class 4: comets with no heads. The index of damage (ID) value was calculated for each sample. […]

HaCaT cells [6] = assay: Alkaline comet assay (DNA damage); type: cell-based, human; conditions: peptide 1 mg mL^−1, MMS 4 × 10^−5 M, 24 h
Protocol: as §3

L929 cells [7] = assay: Alkaline comet assay (DNA damage); type: cell-based, mice; conditions: MMS 4 × 10^−5 M, 24 h
Protocol: as §3

[8] = tested on: MRC-5 (human lung fibroblasts); assay: Cytotoxicity MTT assay; type: cell-based; conditions: peptide 1 mg mL^−1, MMS 4 × 10^−5 M, absorbance 595 nm, three independent experiments
Protocol: as §1

[9] = tested on: HaCaT (human keratinocytes); assay: Cytotoxicity MTT assay; type: cell-based; conditions: peptide 1 mg mL^−1, MMS 4 × 10^−5 M, absorbance 595 nm, three independent experiments
Protocol: as §1

COS(C)(=O)=O [MMS, methyl methanesulfonate]
cell viability (MTT) [1]: death of all cells | cell morphology / apoptosis (L929 cells [2]): severe damage to DNA and nuclei structure | cell morphology / apoptosis (MRC-5 cells [3]): severe damage to DNA and nuclei structure | cell morphology / apoptosis (HaCaT cells [4]): severe damage to DNA and nuclei structure | DNA damage (comet assay) (MRC-5 cells [5]): completely damaged DNA | DNA damage (comet assay) (HaCaT cells [6]): completely damaged DNA | DNA damage (comet assay) (L929 cells [7]): completely damaged DNA | cell viability (MTT) [8]: death of all cells | cell viability (MTT) [9]: death of all cells
